Assay results reported in patent US8916599B2, “1H-benz imidazole-5-carboxamides as anti-inflammatory agents” (Orexo AB, priority 2008, dated 2014).

The compounds below were run against T1, recombinant human mPGES-1 (Homo sapiens, UniProt O14684) (assay: mPGES-1 inhibition test (microsomes, PGH2 substrate, HTRF detection of PGE2)). Conditions: inhibition of mPGES-1 at 10 μM.
T1 construct: made in house; host or cells: Rosetta E. coli (microsomal/membrane fraction)
T1 sequence (O14684 1-152): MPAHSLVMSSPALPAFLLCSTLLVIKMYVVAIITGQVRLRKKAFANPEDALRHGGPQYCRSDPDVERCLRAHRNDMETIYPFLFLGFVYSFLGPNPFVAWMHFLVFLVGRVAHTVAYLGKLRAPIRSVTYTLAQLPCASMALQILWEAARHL
Type: biochemical
Description: Microsomes from Rosetta E. coli bacteria expressing recombinant human mPGES-1 is dissolved in 0.1 M KPi pH 7.4 buffer containing 2.5 mM GSH. 50 μl of the enzyme is subsequently dispensed in a 384-well plate. 0.5 μl of the inhibitor dissolved in DMSO at is thereafter added to each well and incubated for 25 minutes at room temperature. Subsequently, 2 μl of PGH2 dissolved in an appropriate solvent is added to each well and after one minute the acidified stop solution containing FeCl2 is added. 4 μl of the total volume is transferred to a separate plate and diluted 750-fold in two separate steps before HTRF detection of PGE2.
The HTRf detection is performed by the use of a commercially available kit from CisBio essentially according to the manufacturer's protocol. Briefly, 10 μl of the diluted sample is transferred to a white 384-well plate. 5 μl of d2 and 5 μl Eu3+-Cryptate labeled anti-PGE2 is added to each well containing samples by the use of a Multidrop. The plate is covered with a plastic self-adhesive film, centrifuged at 1200 rpm for 1 minute and subsequently stored at +4° C. over night.
After over night incubation the fluorescence is measured by the use of an appropriate microplate reader. The fluorescence of europium cryptate, and d2 are measured using the following excitation and emission wavelength, europium cryptate: λmax^ex=307 nm, λmax^em=620 nm and d2: λmax^ex=620 nm, λmax^em=665 nm), respectively. The extent of the specific FRET is measured as a ratio of the emission intensity at 665 nm vs. that at 620 nm. A standard curve using synthetic PGE2 is used to quantify the amount of PGE2 in unknown samples.

| Structure (SMILES) | inhibition at 10 µM |
| --- | --- |
| O=C(Nc1nc2c(s1)CCC2)c1ccc2[nH]c(Nc3c(Cl)cccc3Cl)nc2c1 [Example 78, 2-(2,6-Dichloro-phenylamino)-1H-benzimidazole-5-carboxylic acid (5,6-dihydro-4H-cyclopentathiazol-2-yl)-amide] | 90% |
| O=C(Nc1nc2c(s1)CCCC2)c1ccc2[nH]c(Nc3c(Cl)cccc3Cl)nc2c1 [Example 79, 2-(2,6-Dichloro-phenylamino)-1H-benzimidazole-5-carboxylic acid (4,5,6,7-tetrahydro-benzothiazol-2-yl)-amide] | 100% |
| O=C(Nc1nc2ccccc2[nH]1)c1ccc2[nH]c(Nc3c(Cl)cccc3Cl)nc2c1 [Example 80, 2-(2,6-Dichloro-phenylamino)-1H-benzimidazole-5-carboxylic acid (benzimidazol-2-yl)-amide] | 92% |
| Cn1c(NC(=O)c2ccc3[nH]c(Nc4c(Cl)cccc4Cl)nc3c2)nc2ccccc21 [Example 81, 2-(2,6-Dichloro-phenylamino)-1H-benzimidazole-5-carboxylic acid (1-methyl-benzimidazol-2-yl)-amide] | 84% |
| O=C(Nc1ccc(I)cc1)c1ccc2[nH]c(Nc3c(Cl)cccc3Cl)nc2c1 [Example 84, 2-(2,6-Dichloro-phenylamino)-1H-benzimidazole-5-carboxylic acid (4-iodo-phenyl)-amide] | 100% |
| Cc1cc(NC(=O)c2ccc3[nH]c(Nc4c(Cl)cccc4Cl)nc3c2)ncc1Cl [Example 89, 2-(2,6-Dichloro-phenylamino)-1H-benzimidazol-5-carboxylic acid (5-chloro-4-methyl-pyridin-2-yl)-amide] | 97% |
| O=C(Nc1ccc(Br)cc1)c1ccc2[nH]c(Nc3c(Cl)cc(Cl)cc3Cl)nc2c1 [Example 107, 2-(2,4,6-Trichloro-phenylamino)-1H-benzimidazole-5-carboxylic acid (4-bromo-phenyl)-amide] | 99% |
| O=C(Nc1ccc(Br)cc1)c1ccc2[nH]c(Nc3cccc(Cl)c3Cl)nc2c1 [Example 108, 2-(2,3-Dichloro-phenylamino)-1H-benzimidazole-5-carboxylic acid (4-bromo-phenyl)-amide] | 100% |
| O=C(Nc1ccc(Br)cc1)c1ccc2[nH]c(Nc3ccc(Cl)cc3Cl)nc2c1 [Example 109, 2-(2,4-Dichloro-phenylamino)-1H-benzimidazole-5-carboxylic acid (4-bromo-phenyl)-amide] | 100% |
| O=C(Nc1ccc(Cl)c(Cl)c1)c1ccc2[nH]c(Nc3c(Cl)cccc3Cl)nc2c1 [Example 111, 2-(2,6-Dichloro-phenylamino)-1H-benzimidazole-5-carboxylic acid (3,4-dichloro-phenyl)-amide] | 100% |
| O=C(Nc1cc(Cl)cc(Cl)c1)c1ccc2[nH]c(Nc3c(Cl)cccc3Cl)nc2c1 [Example 112, 2-(2,6-Dichloro-phenylamino)-1H-benzimidazole-5-carboxylic acid (3,5-dichloro-phenyl)-amide] | 97% |
| CCc1cccc(CC)c1Nc1nc2cc(C(=O)Nc3ccc(Br)cc3)ccc2[nH]1 [Example 114, 2-(2,6-Diethyl-phenylamino)-1H-benzimidazole-5-carboxylic acid (4-bromo-phenyl)-amide] | 80% |
| Cc1ccnc(NC(=O)c2ccc3[nH]c(Nc4c(Cl)cccc4Cl)nc3c2)c1 [Example 116, 2-(2,6-Dichloro-phenylamino)-1H-benzimidazole-5-carboxylic acid (4-methyl-pyridin-2-yl)-amide] | 92% |
| Cc1cc(C)nc(NC(=O)c2ccc3[nH]c(Nc4c(Cl)cccc4Cl)nc3c2)c1 [Example 117, 2-(2,6-Dichloro-phenylamino)-1H-benzimidazole-5-carboxylic acid (4,6-dimethyl-pyridin-2-yl)-amide] | 100% |
| Cc1cc(C)nc(NC(=O)c2ccc3[nH]c(Nc4ccccc4C(F)(F)F)nc3c2)c1 [Example 118, 2-(2-Trifluoromethyl-phenylamino)-1H-benzimidazole-5-carboxylic acid (4,6-dimethyl-pyridin-2-yl)-amide] | 80% |
| CCc1ccnc(NC(=O)c2ccc3[nH]c(Nc4c(Cl)cccc4Cl)nc3c2)c1 [Example 120, 2-(2,6-Dichloro-phenylamino)-1H-benzimidazole-5-carboxylic acid (4-ethyl-pyridin-2-yl)-amide] | 96% |
| O=C(Nc1ccc(Br)c(F)c1)c1cc2nc(Nc3c(Cl)cccc3Cl)[nH]c2cc1F [Example 121, 2-(2,6-Dichloro-phenylamino)-6-fluoro-1H-benzimidazol-5-carboxylic acid (4-bromo-3-fluoro-phenyl)-amide] | 95% |
| Cc1cc2[nH]c(Nc3c(Cl)cccc3Cl)nc2cc1C(=O)Nc1ccc(C(C)(C)C)cc1 [Example 122, 2-(2,6-Dichloro-phenylamino)-6-methyl-1H-benzimidazol-5-carboxylic acid (4-tert.-butyl-phenyl)-amide] | 99% |
| Cc1cc2[nH]c(Nc3c(Cl)cccc3Cl)nc2cc1C(=O)NC1CCC(C)(C)CC1 [Example 123, 2-(2,6-Dichloro-phenylamino)-6-methyl-1H-benzimidazol-5-carboxylic acid (4,4-dimethyl-cyclohexyl)-amide] | 95% |
| O=C(Nc1ccc(Cl)c(F)c1)c1cc2nc(Nc3c(Cl)cccc3Cl)[nH]c2cc1F [Example 124, 2-(2,6-Dichloro-phenylamino)-6-fluoro-1H-benzimidazol-5-carboxylic acid (4-chloro-3-fluoro-phenyl)-amide] | 98% |
| O=C(NC1Cc2ccccc2C1)c1cc2nc(Nc3c(Cl)cccc3Cl)[nH]c2cc1F [Example 125, 2-(2,6-Dichloro-phenylamino)-6-fluoro-1H-benzimidazol-5-carboxylic acid indan-2-yl-amide] | 100% |
| Cn1c(Nc2c(Cl)cccc2Cl)nc2cc(C(=O)NCc3cnccc3C(F)(F)F)c(F)cc21 [Example 126, 2-(2,6-Dichloro-phenylamino)-6-fluoro-1-methyl-1H-benzimidazole-5-carboxylic acid (4-trifluoromethyl-pyridin-3-ylmethyl)-amide] | 92% |
| Cc1cc(NC(=O)c2cc3nc(Nc4c(Cl)cccc4Cl)n(C)c3cc2F)ncc1Cl [Example 127, 2-(2,6-Dichloro-phenylamino)-6-fluoro-1-methyl-1H-benzimidazole-5-carboxylic acid (5-chloro-4-methyl-pyridin-2-yl)-amide] | 100% |
| Cc1cc(C)nc(NC(=O)c2cc3nc(Nc4c(Cl)cccc4Cl)n(C)c3cc2F)c1 [Example 128, 2-(2,6-Dichloro-phenylamino)-6-fluoro-1-methyl-1H-benzimidazole-5-carboxylic acid (4,6-dimethyl-pyridin-2-yl)-amide] | 100% |
| Cn1c(Nc2c(Cl)cccc2Cl)nc2cc(C(=O)Nc3cc(Cl)ccn3)c(F)cc21 [Example 129, 2-(2,6-Dichloro-phenylamino)-6-fluoro-1-methyl-1H-benzimidazole-5-carboxylic acid (4-chloro-pyridin-2-yl)-amide] | 92% |
| Cn1c(Nc2c(Cl)cccc2Cl)nc2cc(C(=O)Nc3cc(C(F)(F)F)ccn3)c(F)cc21 [Example 130, 2-(2,6-Dichloro-phenylamino)-6-fluoro-1-methyl-1H-benzimidazole-5-carboxylic acid (4-trifluoromethyl-pyridin-2-yl)-amide] | 93% |
| Cc1nc(NC(=O)c2cc3nc(Nc4c(Cl)cccc4Cl)n(C)c3cc2F)cc2c1CCCC2 [Example 131, 2-(2,6-Dichloro-phenylamino)-6-fluoro-1-methyl-1H-benzimidazole-5-carboxylic acid (1-methyl-5,6,7,8-tetrahydro-isoquinolin-3-yl)-amide] | 96% |
| Cc1nc(NC(=O)c2ccc3[nH]c(Nc4c(Cl)cccc4Cl)nc3c2)cc2c1CCCC2 [Example 132, 2-(2,6-Dichloro-phenylamino)-1H-benzimidazole-5-carboxylic acid (1-methyl-5,6,7,8-tetrahydro-isoquinolin-3-yl)-amide] | 97% |
| COc1cc2c(cc1C(=O)NC1CCCCC1)nc(Nc1c(Cl)cccc1Cl)n2C [Example 135, 2-(2,6-Dichloro-phenylamino)-6-methoxy-1-methyl-1H-benzimidazole-5-carboxylic acid cyclohexylamide] | 100% |
| COc1cc2c(cc1C(=O)NCc1ccccc1C(F)(F)F)nc(Nc1c(Cl)cccc1Cl)n2C [Example 136, 2-(2,6-Dichloro-phenylamino)-6-methoxy-1-methyl-1H-benzimidazole-5-carboxylic acid 2-trifluoromethyl-benzylamide] | 98% |
